The record followed here is US11304929B2, “Tosylacetate based compounds and derivatives thereof as PHGDH inhibitors” (priority 2017, dated 2022).

Each structure is given as a SMILES string. pIC50: −log10 of the molar value. Where two headings read alike, the source gives them in different places.

In experiment [1] the target is PHGDH (Homo sapiens (Human), UniProt O43175). Description: 3-Phosphoglycerate Dehydrogenase (PHGDH) Fluorescence Intensity Assay, run at two NAD/3-PG ratios: PHGDH_HIGH_NAD/3-PG (250 μM NAD/500 μM 3-PG) and PHGDH_500_NAD/3-PG (500 μM NAD/500 μM 3-PG). The experiment is classed as biochemical.
PHGDH, sequence (O43175 2-533 limits assumed): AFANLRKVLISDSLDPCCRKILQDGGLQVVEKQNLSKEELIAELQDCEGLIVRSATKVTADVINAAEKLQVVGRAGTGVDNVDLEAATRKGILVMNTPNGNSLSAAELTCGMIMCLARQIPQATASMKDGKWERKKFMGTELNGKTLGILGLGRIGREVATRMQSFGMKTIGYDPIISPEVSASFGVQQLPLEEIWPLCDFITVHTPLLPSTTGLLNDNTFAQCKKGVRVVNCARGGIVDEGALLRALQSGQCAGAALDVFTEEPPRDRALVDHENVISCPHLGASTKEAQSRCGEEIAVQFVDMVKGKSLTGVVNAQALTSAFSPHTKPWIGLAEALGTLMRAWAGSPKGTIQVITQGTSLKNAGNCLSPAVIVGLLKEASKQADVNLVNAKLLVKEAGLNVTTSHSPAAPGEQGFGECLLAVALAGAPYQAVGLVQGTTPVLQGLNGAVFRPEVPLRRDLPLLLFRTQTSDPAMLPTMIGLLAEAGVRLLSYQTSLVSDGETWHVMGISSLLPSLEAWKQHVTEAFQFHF
Source text: This assay is used to identify compounds which inhibit the enzymatic activity of PHGDH which catalyzes the reaction of 3-Phosphoglycerate (3-PG) and NAD to 3-Phosphohydroxypyruvate and NADH.
The produced NADH is used in a coupled reaction for Diaphorase mediated reduction of Resazurin to Resorufin which can be measured in a Fluorescence Intensity readout.
The full length version of PHGDH enzyme was expressed in E. coli with an N-terminal HIS-tag and a TEV cleavage site.
The 3-Phosphoglycerate substrate was purchased from Sigma. NAD, Diaphorase and Resazurin were purchased from Sigma Aldrich.
Compounds are dispensed onto assay plates (black, low volume, flat bottom 384 well, Corning) using an Access Labcyte Workstation with the Labcyte Echo 55× from a DMSO solution. For the chosen highest assay concentration of 100 μM, 150 nl of compound solution are transferred from a 10 mM DMSO compound stock solution. A series of 11 concentrations (10 1:5 steps) is transferred for each compound.
The assay has been performed at two different NAD/3-PG ratios (final assay concentrations):
Plates are kept at room temperature. After 240 minutes incubation time the fluorescence signal is measured in a PerkinElmer Envision HTS Multilabel Reader with an excitation wavelength at 530-560 nm and an emission wavelength at 590 nm.
Each plate contains negative controls (diluted DMSO instead of test compound; reaction as described with PHGDH protein) and positive controls (diluted DMSO instead of test compound; reaction as described with buffer instead of PHGDH protein). Negative and positive control values are used for normalization.
IC50 values are calculated and analyzed in the MEGALAB IC50 application using a 4 parametric logistic model.
For experiment [2], the system named is MDA-MB-468. Description: 13C3 Serine Assay MDA-MB-468 (13C3 serine levels by LC/MS/MS). Type of experiment: cell-based. The following applies: Homo sapiens; MDA-MB-468 cells, 13C3 serine levels by LC/MS/MS; read-out: IC50 (13CSERINE).
Procedure: Cells are cultivated in Medium I in a 75 mL flask.
Day 1: 5000 cells in 180 μL Medium I/well were seeded into a 96-well plate. Plates were incubated at 37° C. in a 5% CO2 incubator overnight.
Day 2: 10 mM DMSO stock from test compounds were serially pre-diluted with Medium I (See dilution scheme: for the first well 20 μL DMSO stock are diluted with 180 μL Medium I. From this 1000 μM solution further seven 1:3 (1+2) dilution are prepared with Medium I). 20 μL of these pre-dilutions are transferred in duplicates to the 96-well plate of Day 1. After incubation at 37° C. in a CO2 incubator for 1 hour the medium was removed, 100 μL PBS (tempered to room temperature) added and subsequently removed again.
180 μL Medium II were then added per well and 20 μL of serial dilutions of test compounds in Medium II (as described before) were transferred per well as above. After 180 minutes incubation at 37° C. in a CO2 incubator the medium was again cautiously removed.
After the addition of 100 μL methanol: H2O (80:20, v:v, pre-cooled to −80° C.) the plates were sealed immediately and frozen at −80° C.
At day of measurement plates were thawn, centrifuged and the supernatant evaporated. The samples were resuspended in 100 μl water for tandem mass spectrometry.
^13C3 serine levels were analyzed with LC/MS/MS using Multiple Reaction Monitoring (MRM).
IC50 values were computed from these values using a 4 parametric logistic model.
[3] abbreviates: 250 μM NAD/500 μM 3-PG, read-out: IC50 (PHGDH_HIGH_NAD/3-PG).
The mark [4] stands for this setting: 500 μM NAD/500 μM 3-PG, read-out: IC50 (PHGDH_500_NAD/3-PG).

For `Cc1nc2c(cc(C(=O)N[C@H](CO)c3ccc(S(=O)(=O)CC(=O)O)cc3)n2C)c(Cl)c1Cl` [Example 03-011, 2-{4-[(1S)-1-({4,5-dichloro-1,6-dimethyl-1H-pyrrolo[2,3-b]pyridin-2-yl}formamido)-2-hydroxyethyl]benzenesulfonyl}acetic acid], the pIC50 in experiment [1] (setting [3]) is 8.05; in experiment [2], 5.70.
On the same counts, the results for `Cc1cc(Cl)c2cc(C(=O)N[C@H](C)c3ccc(S(=O)(=O)C(C)C(=O)OC(C)(C)C)cc3)n(C)c2c1` (stereo partly drawn) [Example 05-001, tert-butyl 2-{4-[(1R)-1-[(4-chloro-1,6-dimethyl-1H-indol-2-yl)formamido]ethyl]benzenesulfonyl}propanoate] are 4.61 and 6.05.
As to `CCOC(=O)C(C)(C)S(=O)(=O)c1ccc([C@@H](C)NC(=O)c2cc3c(Cl)cc(C)cc3n2C)cc1` [Example 05-003, ethyl 2-{4-[(1R)-1-[(4-chloro-1,6-dimethyl-1H-indol-2-yl)formamido]ethyl]benzenesulfonyl}-2-methylpropanoate], the pIC50 is 4.80 in experiment [1] (setting [3]) and 7.52 in experiment [2].
As to `Cc1cc(Cl)c2cc(C(=O)N[C@H](C)c3ccc(S(=O)(=O)C(C)C(=O)OC(C)C)cc3)n(C)c2c1` (stereo partly drawn) [Example 05-004, propan-2-yl 2-{4-[(1R)-1-[(4-chloro-1,6-dimethyl-1H-indol-2-yl)formamido]ethyl]benzenesulfonyl}propanoate], the pIC50 in experiment [1] (setting [3]) was 4.93; in experiment [2], 8.00.
Regarding `COCCC(C(=O)OC)S(=O)(=O)c1ccc([C@@H](C)NC(=O)c2cc3c(Cl)cc(C)cc3n2C)cc1` (stereo partly drawn) [Example 05-005, methyl 2-{4-[(1R)-1-[(4-chloro-1,6-dimethyl-1H-indol-2-yl)formamido]ethyl]benzenesulfonyl}-4-methoxybutanoate], the results for the pIC50 in experiment [1] (setting [3]) and in experiment [2] were 6.19 and 6.08, respectively.
As for `COC(=O)C(C)S(=O)(=O)c1ccc([C@@H](C)NC(=O)c2cc3c(Cl)cc(C)cc3n2C)cc1` (stereo partly drawn) [Example 05-009, methyl 2-{4-[(1R)-1-[(4-chloro-1,6-dimethyl-1H-indol-2-yl)formamido]ethyl]benzenesulfonyl}propanoate], the values for the pIC50 in experiment [1] (setting [3]) and in experiment [2] were 5.77 and 8.80, respectively.
For `COC(=O)C1(S(=O)(=O)c2ccc([C@@H](C)NC(=O)c3cc4c(Cl)cc(C)cc4n3C)cc2)CCOCC1` [Example 05-010, methyl 4-{4-[(1R)-1-[(4-chloro-1,6-dimethyl-1H-indol-2-yl)formamido]ethyl]benzenesulfonyl}oxane-4-carboxylate], the values for the pIC50 in experiment [1] (setting [3]) and in experiment [2] were 4.95 and 8.43, respectively.
On the same counts, the results for `CCOC(=O)C(C)S(=O)(=O)c1ccc([C@@H](C)NC(=O)c2cc3c(Cl)cc(C)cc3n2C)cc1` (stereo partly drawn) [Example 05-011, ethyl 2-{4-[(1R)-1-[(4-chloro-1,6-dimethyl-1H-indol-2-yl)formamido]ethyl]benzenesulfonyl}propanoate] are 5.30 and 8.41.
As for `Cc1cc(Cl)c2cc(C(=O)N[C@H](C)c3ccc(S(=O)(=O)C(C)(C)C(=O)OC(C)C)cc3)n(C)c2c1` [Example 05-012, propan-2-yl 2-{4-[(1R)-1-[(4-chloro-1,6-dimethyl-1H-indol-2-yl)formamido]ethyl]benzenesulfonyl}-2-methylpropanoate], the pIC50 was 4.60 in experiment [1] (setting [3]) and 6.04 in experiment [2].
Consider `CCC(C(=O)OC)S(=O)(=O)c1ccc([C@@H](C)NC(=O)c2cc3c(Cl)cc(C)cc3n2C)cc1` (stereo partly drawn) [Example 05-013, methyl 2-{4-[(1R)-1-[(4-chloro-1,6-dimethyl-1H-indol-2-yl)formamido]ethyl]benzenesulfonyl}butanoate], for which the values for the pIC50 in experiment [1] (setting [3]) and in experiment [2] were 5.26 and 6.78, respectively.
On to `COC(=O)C(C)(C)S(=O)(=O)c1ccc([C@@H](CO)NC(=O)c2cc3c(Cl)c(Cl)c(C)cc3n2C)cc1` [Example 05-017, methyl 2-{4-[(1S)-1-[(4,5-dichloro-1,6-dimethyl-1H-indol-2-yl)formamido]-2-hydroxyethyl]benzenesulfonyl}-2-methylpropanoate], for which the pIC50 in experiment [1] (setting [3]) was 5.91; in experiment [1] (setting [4]), 5.53; in experiment [2], 9.52.
With `COCCOC(=O)C(C)(C)S(=O)(=O)c1ccc([C@@H](C)NC(=O)c2cc3c(Cl)c(Cl)c(C)nc3n2C)cc1` [Example 05-018, 2-methoxyethyl 2-{4-[(1R)-1-({4,5-dichloro-1,6-dimethyl-1H-pyrrolo[2,3-b]pyridin-2-yl}formamido)ethyl]benzenesulfonyl}-2-methylpropanoate], the pIC50 in experiment [1] (setting [3]) is 5.27; in experiment [2] it was 6.85.
Turning to `COC(=O)C1(S(=O)(=O)c2ccc([C@@H](C)NC(=O)c3cc4c(Cl)cc(C)cc4n3C)cc2)CC1` [Example 05-019, methyl 1-{4-[(1R)-1-[(4-chloro-1,6-dimethyl-1H-indol-2-yl)formamido]ethyl]benzenesulfonyl}cyclopropane-1-carboxylate], the pIC50 in experiment [1] (setting [3]) was 5.27; in experiment [2] it was 6.29.
Consider `COC(=O)C1(S(=O)(=O)c2ccc([C@@H](C)NC(=O)c3cc(-c4ccc(F)cc4)nn3C)cc2)CCOCC1` [Example 06-001, methyl 4-{4-[(1R)-1-{[3-(4-fluorophenyl)-1-methyl-1H-pyrazol-5-yl]formamido}ethyl]benzenesulfonyl}oxane-4-carboxylate], for which the pIC50 in experiment [1] (setting [3]) is 5.11; in experiment [2], 4.60.
On to `COC(=O)C(C)(C)S(=O)(=O)c1ccc([C@@H](C)NC(=O)c2cc(-c3ccc(F)cc3)nn2C)cc1` [Example 06-002, methyl 2-{4-[(1R)-1-{[3-(4-fluorophenyl)-1-methyl-1H-pyrazol-5-yl]formamido}ethyl]benzenesulfonyl}-2-methylpropanoate], for which the pIC50 was 4.83 in experiment [1] (setting [3]) and 5.72 in experiment [2].
For `Cc1cc(Cl)c2cc(C(=O)N[C@H](C)c3ccc(S(=O)(=O)C4(C(=O)O)CCOCC4)cc3)n(C)c2c1` [Example 07-002, 4-{4-[(1R)-1-[(4-chloro-1,6-dimethyl-1H-indol-2-yl)formamido]ethyl]benzenesulfonyl}oxane-4-carboxylic acid] the same measures were 8.15 and 5.16.
In the case of `Cc1cc(Cl)c2cc(C(=O)N[C@H](C)c3ccc(S(=O)(=O)C(C)(C)C(=O)O)cc3)n(C)c2c1` [Example 07-005, 2-{4-[(1R)-1-[(4-chloro-1,6-dimethyl-1H-indol-2-yl)formamido]ethyl]benzenesulfonyl}-2-methylpropanoic acid], the pIC50 was 7.92 in experiment [1] (setting [3]) and 5.93 in experiment [2].
`CCCC(C(=O)O)S(=O)(=O)c1ccc([C@@H](C)NC(=O)c2cc3c(Cl)cc(C)cc3n2C)cc1` (stereo partly drawn) [Example 07-012, 2-{4-[(1R)-1-[(4-chloro-1,6-dimethyl-1H-indol-2-yl)formamido]ethyl]benzenesulfonyl}pentanoic acid]: the pIC50 in experiment [1] (setting [3]) is 8.22; in experiment [1] (setting [4]), 7.80; in experiment [2], 5.62.
On to `CCOCCOCCOC(=O)CS(=O)(=O)c1ccc([C@@H](C)NC(=O)c2cc3c(Cl)cc(C)cc3n2C)cc1` [Example 09-001, 2-(2-ethoxyethoxy)ethyl 2-{4-[(1R)-1-[(4-chloro-1,6-dimethyl-1H-indol-2-yl)formamido]ethyl]benzenesulfonyl}acetate], for which the figures for the pIC50 in experiment [1] (setting [3]) and in experiment [2] were 6.54 and 7.27, respectively.
For the molecule `CC(=O)OCCOC(=O)CS(=O)(=O)c1ccc([C@@H](C)NC(=O)c2cc3c(Cl)cc(C)cc3n2C)cc1` [Example 09-002, 2-(acetyloxy)ethyl 2-{4-[(1R)-1-[(4-chloro-1,6-dimethyl-1H-indol-2-yl)formamido]ethyl]benzenesulfonyl}acetate], the pIC50 in experiment [1] (setting [3]) is 6.64; in experiment [2] it was 7.16.
For `COCCOC(=O)CS(=O)(=O)c1ccc([C@@H](C)NC(=O)c2cc3c(Cl)c(Cl)c(C)nc3n2C)cc1` [Example 09-003, 2-methoxyethyl 2-{4-[(1R)-1-({4,5-dichloro-1,6-dimethyl-1H-pyrrolo[2,3-b]pyridin-2-yl}formamido)ethyl]benzenesulfonyl}acetate] the same measures were 6.54 and 7.08.
For `CO[C@@H](C)COC(=O)CS(=O)(=O)c1ccc([C@@H](C)NC(=O)c2cc3c(Cl)cc(C)cc3n2C)cc1` [Example 09-004, (2S)-2-methoxypropyl 2-{4-[(1R)-1-[(4-chloro-1,6-dimethyl-1H-indol-2-yl)formamido]ethyl]benzenesulfonyl}acetate], the pIC50 was 6.40 in experiment [1] (setting [3]) and 7.10 in experiment [2].
For `Cc1cc(Cl)c2cc(C(=O)N[C@H](C)c3ccc(S(=O)(=O)CC(=O)OCCOCCO)cc3)n(C)c2c1` [Example 09-005, 2-(2-hydroxyethoxy)ethyl 2-{4-[(1R)-1-[(4-chloro-1,6-dimethyl-1H-indol-2-yl)formamido]ethyl]benzenesulfonyl}acetate], the values for the pIC50 in experiment [1] (setting [3]) and in experiment [2] were 6.71 and 6.86, respectively.
On to `Cc1cc(Cl)c2cc(C(=O)N[C@H](C)c3ccc(S(=O)(=O)CC(=O)OCCO)cc3)n(C)c2c1` [Example 09-007, 2-hydroxyethyl 2-{4-[(1R)-1-[(4-chloro-1,6-dimethyl-1H-indol-2-yl)formamido]ethyl]benzenesulfonyl}acetate], for which the pIC50 was 6.78 in experiment [1] (setting [3]) and 7.62 in experiment [2].
Take `Cc1cc(Cl)c2cc(C(=O)N[C@H](C)c3ccc(S(=O)(=O)CC(=O)OCc4cccc(C(F)(F)F)c4)cc3)n(C)c2c1` [Example 09-011, [3-(trifluoromethyl)phenyl]methyl 2-{4-[(1R)-1-[(4-chloro-1,6-dimethyl-1H-indol-2-yl)formamido]ethyl]benzenesulfonyl}acetate]: the pIC50 in experiment [1] (setting [3]) is 5.45; in experiment [2], 7.70.
Consider `Cc1cc(Cl)c2cc(C(=O)N[C@H](C)c3ccc(S(=O)(=O)CC(=O)OCC4(C)COC4)cc3)n(C)c2c1` [Example 09-012, (3-methyloxetan-3-yl)methyl 2-{4-[(1R)-1-[(4-chloro-1,6-dimethyl-1H-indol-2-yl)formamido]ethyl]benzenesulfonyl}acetate], for which the pIC50 in experiment [1] (setting [3]) is 6.52; in experiment [2], 7.65.
